A word on the pIC50: it is the negative decadic logarithm of the IC50, by convention in mol/L. As a reminder, the MIC is the lowest concentration found to suppress growth. Broadly, the ILS is the gain in survival time of treated over control animals, in per cent.

The source of these data is ChEMBL document CHEMBL4118070, “Synthesis, antimicrobial, antiquorum-sensing and antitumor activities of new benzimidazole analogs” (Eur J Med Chem, 2017).

pIC50: −log10 of the molar value. Converted amounts (≈) assume the structure as drawn. The source made the active and inactive calls. The rule behind the calls is not given here.

Assay [1] has as its system WI-38. Description: Cytotoxicity against human W138 cells assessed as decrease in cell viability after 48 hrs by MTT assay. The assay is classed as cell-based. The note with it: WI-38, 48 h. (Formazan colour is commonly taken as a measure of viable cells.)
For assay [2], the system named is Ehrlich. Nature of the assay: Antitumor activity against mouse EAC allografted in Swiss mouse assessed as WBC count in blood at 0.5 mg administered 9 days (reference value: 23.96 10^3/mm3). It counts as functional.
The subject of assay [3] is Chromobacterium violaceum. Description: Inhibition of quorum sensing system in Chromobacterium violaceum ATCC 12472 assessed as diameter of violacein pigment inhibition at 5 mg/ml after 48 hrs.
The nature of assay [4]: Displacement of methyl green from DNA (unknown origin) incubated in dark for 24 hrs by colorimetric method.
The subject of assay [5] is Candida albicans. Description: Antifungal activity against Candida albicans after 48 hrs by two-fold serial dilution method. The assay is classed as functional.
Assay [6] concerns MCF7. Description: Cytotoxicity against human MCF7 cells assessed as decrease in cell viability after 48 hrs by MTT assay. It counts as functional, cell-based. The following applies: MCF7, 48 h.
Assay [7] has as its system Ehrlich. Description: Antitumor activity against mouse EAC allografted in Swiss mouse assessed as tumor volume at 0.5 mg administered 9 days (reference value: 9.85 ml). It counts as functional.
Assay [8] has as its system HepG2. Description: Cytotoxicity against human HepG2 cells assessed as decrease in cell viability after 48 hrs by MTT assay. The assay is classed as functional, cell-based. The note with it: HepG2, 48 h.
Assay [9] relates to Ehrlich. Nature of the assay: Antitumor activity against mouse EAC allografted in Swiss mouse assessed as RBC count in blood at 0.5 mg administered 9 days (reference value: 3.69 10^6/mm3). The assay is classed as functional.
The subject of assay [10] is HCT-116. Nature of the assay: Cytotoxicity against human HCT116 cells assessed as decrease in cell viability after 48 hrs by MTT assay. It counts as functional, cell-based. The note with it: HCT-116, 48 h.
Assay [11] has as its system Bacillus cereus. Description: Antibacterial activity against Bacillus cereus UW 85 after 24 hrs by two-fold serial dilution method. The note with it: UW 85, 24 h. It counts as functional.
Assay [12] has as its system Ehrlich. Nature of the assay: Antitumor activity against mouse EAC allografted in Swiss mouse assessed as hemoglobin count in blood at 0.5 mg administered 9 days (reference value: 8.73 g/dl). It counts as functional.
In assay [13] the test system is Ehrlich. Description: Antitumor activity against mouse EAC allografted in Swiss mouse assessed as decrease in viable tumor cell count at 0.5 mg administered 9 days by trypan blue staining method. The assay is classed as functional.
The subject of assay [14] is Aspergillus fumigatus. Nature of the assay: Antifungal activity against Aspergillus fumigatus 293 after 48 hrs by two-fold serial dilution method. The assay is classed as functional. The note with it: Af293, 48 h.
Assay [15] concerns Ehrlich. Description: Antitumor activity against mouse EAC allografted in Swiss mouse assessed as increase in mouse life span at 0.5 mg administered 9 days relative to control. It counts as functional.
Assay [16] deals with Staphylococcus aureus. Description: Antibacterial activity against Staphylococcus aureus ATCC 29213 after 24 hrs by two-fold serial dilution method. The assay is classed as functional. The following applies: ATCC 29213, 24 h.
Assay [17] has as its system Ehrlich. Nature of the assay: Antitumor activity against mouse EAC allografted in Swiss mouse assessed as mean mouse survival time at 0.5 mg administered 9 days (reference value: 14.5 days). The assay is classed as functional.
Assay [18] has as its system Escherichia coli. Nature of the assay: Antibacterial activity against Escherichia coli ATCC 12435 after 24 hrs by two-fold serial dilution method. The assay is classed as functional. The note with it: ATCC 12435, 24 h.

As to `O=[N+]([O-])c1ccc2[nH]c(CSCc3nc4cc([N+](=O)[O-])ccc4[nH]3)nc2c1`, the pIC50 in assay [1] is 4.60; in assay [4], 4.43; in assay [6], 5.76; in [8], 5.65; in [10], 5.62. Moreover, the Activity in assay [2] was 7.23 ×10³ /mm3; in [3], 11 mm; in [7], 2.22 mL; in [9] it was 5.45 ×10⁶ /mm3; in assay [12], 13.18 g/dL. Besides, the MIC in assay [5] is 406 µM (≈ 156 µg/mL); in [11], 813 µM (≈ 312 µg/mL); in [14], 406 µM (≈ 156 µg/mL); in [16], 406 µM (≈ 156 µg/mL); in assay [18], 1630 µM (≈ 625 µg/mL). In addition, in [13], the outcome was Active. Further, the increase in lifespan (ILS) in [15] came out at 224.14%. In assay [17], the MST came out at 47 days.
